{
  "source": "paper PMC4971050",
  "about": "(Forensic Toxicology, 2016)",
  "key": {"[1]": {"target": "human CB1 receptor (Homo sapiens, UniProt P21554)", "sequence (P21554 whole entry)": "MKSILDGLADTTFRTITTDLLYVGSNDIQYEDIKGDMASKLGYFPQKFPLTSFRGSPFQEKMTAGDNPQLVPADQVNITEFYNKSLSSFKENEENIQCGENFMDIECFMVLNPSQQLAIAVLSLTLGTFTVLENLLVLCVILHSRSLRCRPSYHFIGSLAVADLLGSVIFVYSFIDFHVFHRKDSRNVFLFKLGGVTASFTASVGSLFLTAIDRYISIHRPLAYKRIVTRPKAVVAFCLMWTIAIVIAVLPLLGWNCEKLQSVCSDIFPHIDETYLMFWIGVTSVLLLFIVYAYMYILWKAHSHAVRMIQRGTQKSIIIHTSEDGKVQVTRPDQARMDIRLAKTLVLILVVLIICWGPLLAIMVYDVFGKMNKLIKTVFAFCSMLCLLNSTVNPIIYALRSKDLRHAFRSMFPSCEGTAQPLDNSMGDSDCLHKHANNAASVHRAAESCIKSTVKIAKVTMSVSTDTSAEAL", "experiment": "FLIPR membrane potential assay", "format": "cell-based", "conditions": "for EC50: membrane potential; for hCB1 Max ± SEM (% CP 55,940): maximum drug effect as percentage of maximally effective (1 µM) CP 55,940; for CB1 selectivity: ratio of CB2 EC50 to CB1 EC50"}, "[2]": {"target": "human CB2 receptor (Homo sapiens, UniProt P34972)", "sequence (P34972 whole entry)": "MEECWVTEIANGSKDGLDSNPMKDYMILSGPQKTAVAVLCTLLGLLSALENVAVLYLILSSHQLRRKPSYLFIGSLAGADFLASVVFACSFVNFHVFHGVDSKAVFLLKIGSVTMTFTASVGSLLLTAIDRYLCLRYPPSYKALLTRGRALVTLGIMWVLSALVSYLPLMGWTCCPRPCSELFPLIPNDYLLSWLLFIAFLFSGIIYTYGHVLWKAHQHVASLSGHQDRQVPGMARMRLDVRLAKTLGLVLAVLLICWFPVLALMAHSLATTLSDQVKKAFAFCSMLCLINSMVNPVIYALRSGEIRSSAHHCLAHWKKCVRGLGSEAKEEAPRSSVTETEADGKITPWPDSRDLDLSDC", "experiment": "FLIPR membrane potential assay", "format": "cell-based", "conditions": "for EC50: membrane potential; for hCB2 Max ± SEM (% CP 55,940): maximum drug effect as percentage of maximally effective (1 µM) CP 55,940; for hCB2 Max ± SEM (% CP 55,940) at 30 µM: effect at 30 µM, highest concentration tested, relative to 1 µM CP 55,940"}, "[3]": {"conditions": "hCB2 pEC50 ± SEM, AtT-20-CB2 cells"}, "[4]": {"conditions": "hCB1 pEC50 ± SEM, AtT-20-CB1 cells"}},
  "data": [
    {"smiles": "CC(C)[C@H](NC(=O)c1nn(CC2CCCCC2)c2ccccc12)C(N)=O", "note": "[compound 3, (S)-N-(1-Amino-3-methyl-1-oxobutan-2-yl)-1-(cyclohexylmethyl)-1H-indazole-3-carboxamide]", "values": [
      {"measurement": "EC50", "setting": "[1]; hCB1 EC50, AtT-20-CB1 cells", "result": 7.8, "unit": "nM"},
      {"measurement": "hCB1 Max ± SEM (% CP 55,940)", "setting": "[1]", "result": "142 ± 18 % CP 55,940"},
      {"measurement": "CB1 selectivity", "setting": "[1]", "result": 2.7},
      {"measurement": "EC50", "setting": "[2]; [3]", "result": 20.9, "unit": "nM"},
      {"measurement": "hCB2 Max ± SEM (% CP 55,940)", "setting": "[2]", "result": "104 ± 11 % CP 55,940"}
    ]},
    {"smiles": "CC(C)[C@H](NC(=O)c1nn(Cc2ccc(F)cc2)c2ccccc12)C(N)=O", "note": "[compound 4, (S)-N-(1-Amino-3-methyl-1-oxobutan-2-yl)-1-(4-fluorobenzyl)-1H-indazole-3-carboxamide]", "values": [
      {"measurement": "EC50", "setting": "[1]; [4]", "result": 2.14, "unit": "nM"},
      {"measurement": "hCB1 Max ± SEM (% CP 55,940)", "setting": "[1]", "result": "151 ± 14 % CP 55,940"},
      {"measurement": "CB1 selectivity", "setting": "[1]", "result": 3.2},
      {"measurement": "EC50", "setting": "[2]; hCB2 EC50, AtT-20-CB2 cells", "result": 6.7, "unit": "nM"},
      {"measurement": "hCB2 Max ± SEM (% CP 55,940)", "setting": "[2]", "result": "98 ± 10 % CP 55,940"}
    ]},
    {"smiles": "CCCCCn1nc(C(=O)N[C@H](C(N)=O)C(C)C)c2ccccc21", "note": "[compound 5, (S)-N-(1-Amino-3-methyl-1-oxobutan-2-yl)-1-pentyl-1H-indazole-3-carboxamide]", "values": [
      {"measurement": "EC50", "setting": "[1]; hCB1 EC50, AtT-20-CB1 cells", "result": 6.5, "unit": "nM"},
      {"measurement": "hCB1 Max ± SEM (% CP 55,940)", "setting": "[1]", "result": "142 ± 15 % CP 55,940"},
      {"measurement": "CB1 selectivity", "setting": "[1]", "result": 1.5},
      {"measurement": "EC50", "setting": "[2]; hCB2 EC50, AtT-20-CB2 cells", "result": 9.9, "unit": "nM"},
      {"measurement": "EC50", "setting": "[2]; [3]", "result": 9.77, "unit": "nM"},
      {"measurement": "hCB2 Max ± SEM (% CP 55,940)", "setting": "[2]", "result": "102 ± 9 % CP 55,940"}
    ]},
    {"smiles": "CC(C)[C@H](NC(=O)c1nn(CCCCCF)c2ccccc12)C(N)=O", "note": "[compound 6, (S)-N-(1-Amino-3-methyl-1-oxobutan-2-yl)-1-(5-fluoropentyl)-1H-indazole-3-carboxamide]", "values": [
      {"measurement": "EC50", "setting": "[1]; [4]", "result": 2.82, "unit": "nM"},
      {"measurement": "hCB1 Max ± SEM (% CP 55,940)", "setting": "[1]", "result": "132 ± 9 % CP 55,940"},
      {"measurement": "CB1 selectivity", "setting": "[1]", "result": 2.0},
      {"measurement": "EC50", "setting": "[2]; hCB2 EC50, AtT-20-CB2 cells", "result": 5.6, "unit": "nM"},
      {"measurement": "hCB2 Max ± SEM (% CP 55,940)", "setting": "[2]", "result": "98 ± 8 % CP 55,940"}
    ]},
    {"smiles": "CC(C)[C@H](NC(=O)c1c2ccccc2nn1CC1CCCCC1)C(N)=O", "note": "[compound 7, (S)-N-(1-Amino-3-methyl-1-oxobutan-2-yl)-2-(cyclohexylmethyl)-2H-indazole-3-carboxamide]", "values": [
      {"measurement": "hCB2 Max ± SEM (% CP 55,940) at 30 µM", "setting": "[2]", "result": "45 ± 7 (at 30 µM) % CP 55,940"}
    ]},
    {"smiles": "CC(C)[C@H](NC(=O)c1c2ccccc2nn1Cc1ccc(F)cc1)C(N)=O", "note": "[compound 8, (S)-N-(1-Amino-3-methyl-1-oxobutan-2-yl)-2-(4-fluorobenzyl)-2H-indazole-3-carboxamide]", "values": [
      {"measurement": "hCB1 Max ± SEM (% CP 55,940) at 30 µM", "setting": "[1]; effect at 30 µM, highest concentration tested, relative to 1 µM CP 55,940", "result": "61 ± 12 (at 30 µM) % CP 55,940"},
      {"measurement": "hCB2 Max ± SEM (% CP 55,940) at 30 µM", "setting": "[2]", "result": "25 ± 4 (at 30 µM) % CP 55,940"}
    ]},
    {"smiles": "CCCCCn1nc2ccccc2c1C(=O)N[C@H](C(N)=O)C(C)C", "note": "[compound 9, (S)-N-(1-Amino-3-methyl-1-oxobutan-2-yl)-2-pentyl-2H-indazole-3-carboxamide]", "values": [
      {"measurement": "EC50", "setting": "[1]; hCB1 EC50, AtT-20-CB1 cells", "result": 4080, "unit": "nM"},
      {"measurement": "CB1 selectivity", "setting": "[1]", "result": 1.0},
      {"measurement": "EC50", "setting": "[2]; hCB2 EC50, AtT-20-CB2 cells", "result": 4120, "unit": "nM"}
    ]},
    {"smiles": "CC(C)[C@H](NC(=O)c1c2ccccc2nn1CCCCCF)C(N)=O", "note": "[compound 10, (S)-N-(1-Amino-3-methyl-1-oxobutan-2-yl)-2-(5-fluoropentyl)-2H-indazole-3-carboxamide]", "values": [
      {"measurement": "EC50", "setting": "[1]; hCB1 EC50, AtT-20-CB1 cells", "result": 1930, "unit": "nM"},
      {"measurement": "EC50", "setting": "[1]; [4]", "result": 1910, "unit": "nM"},
      {"measurement": "CB1 selectivity", "setting": "[1]", "result": 1.5},
      {"measurement": "hCB2 Max ± SEM (% CP 55,940) at 30 µM", "setting": "[2]", "result": "47 ± 15 (at 30 µM) % CP 55,940"},
      {"measurement": "EC50", "setting": "[2]; hCB2 EC50, AtT-20-CB2 cells", "result": 2980, "unit": "nM"}
    ]}
  ]
}
